Test results taken from ChEMBL document CHEMBL1177739, “Fast-forwarding hit to lead: aurora and epidermal growth factor receptor kinase inhibitor lead identification” (J Med Chem, 2010).

Assays:
[1] = target: T1, Aurora kinase A (Homo sapiens) (UniProt O14965); experiment: Inhibition of Aurora A at 10 uM
T1 sequence (whole entry): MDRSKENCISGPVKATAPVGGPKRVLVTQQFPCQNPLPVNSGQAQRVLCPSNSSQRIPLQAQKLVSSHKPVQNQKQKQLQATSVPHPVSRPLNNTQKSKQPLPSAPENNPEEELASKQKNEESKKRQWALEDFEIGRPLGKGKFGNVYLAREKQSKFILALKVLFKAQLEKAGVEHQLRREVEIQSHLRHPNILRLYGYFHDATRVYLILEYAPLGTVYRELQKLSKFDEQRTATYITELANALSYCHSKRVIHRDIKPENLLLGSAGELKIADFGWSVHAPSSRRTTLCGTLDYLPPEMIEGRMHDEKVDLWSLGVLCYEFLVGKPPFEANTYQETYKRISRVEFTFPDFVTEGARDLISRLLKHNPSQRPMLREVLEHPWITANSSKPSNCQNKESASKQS

[2] = target: T2, Aurora kinase A (Homo sapiens, UniProt O14965)
T2 sequence (O14965 whole entry): T1 sequence (whole entry)

[3] = system: HCT-116; experiment: Cytotoxicity against human HCT116 cells by MTS assay; type: functional, cell-based
[4] = target: T3, Epidermal growth factor receptor (Homo sapiens, UniProt P00533)
Description: Inhibition of GST-tagged EGFR expressed in Escherichia coli

[5] = target: Epidermal growth factor receptor (Homo sapiens, UniProt P00533, L858R/T790M)
[6] = target: T3, Epidermal growth factor receptor; details: 20 uM
Description: Inhibition of GST-tagged EGFR expressed in Escherichia coli at 20 uM

[7] = cells; details: Homo sapiens, HCC827, 96 h
Description: Antiproliferative activity against human HCC827 cells after 96 hrs by MTS assay

T3 sequence (P00533 whole entry): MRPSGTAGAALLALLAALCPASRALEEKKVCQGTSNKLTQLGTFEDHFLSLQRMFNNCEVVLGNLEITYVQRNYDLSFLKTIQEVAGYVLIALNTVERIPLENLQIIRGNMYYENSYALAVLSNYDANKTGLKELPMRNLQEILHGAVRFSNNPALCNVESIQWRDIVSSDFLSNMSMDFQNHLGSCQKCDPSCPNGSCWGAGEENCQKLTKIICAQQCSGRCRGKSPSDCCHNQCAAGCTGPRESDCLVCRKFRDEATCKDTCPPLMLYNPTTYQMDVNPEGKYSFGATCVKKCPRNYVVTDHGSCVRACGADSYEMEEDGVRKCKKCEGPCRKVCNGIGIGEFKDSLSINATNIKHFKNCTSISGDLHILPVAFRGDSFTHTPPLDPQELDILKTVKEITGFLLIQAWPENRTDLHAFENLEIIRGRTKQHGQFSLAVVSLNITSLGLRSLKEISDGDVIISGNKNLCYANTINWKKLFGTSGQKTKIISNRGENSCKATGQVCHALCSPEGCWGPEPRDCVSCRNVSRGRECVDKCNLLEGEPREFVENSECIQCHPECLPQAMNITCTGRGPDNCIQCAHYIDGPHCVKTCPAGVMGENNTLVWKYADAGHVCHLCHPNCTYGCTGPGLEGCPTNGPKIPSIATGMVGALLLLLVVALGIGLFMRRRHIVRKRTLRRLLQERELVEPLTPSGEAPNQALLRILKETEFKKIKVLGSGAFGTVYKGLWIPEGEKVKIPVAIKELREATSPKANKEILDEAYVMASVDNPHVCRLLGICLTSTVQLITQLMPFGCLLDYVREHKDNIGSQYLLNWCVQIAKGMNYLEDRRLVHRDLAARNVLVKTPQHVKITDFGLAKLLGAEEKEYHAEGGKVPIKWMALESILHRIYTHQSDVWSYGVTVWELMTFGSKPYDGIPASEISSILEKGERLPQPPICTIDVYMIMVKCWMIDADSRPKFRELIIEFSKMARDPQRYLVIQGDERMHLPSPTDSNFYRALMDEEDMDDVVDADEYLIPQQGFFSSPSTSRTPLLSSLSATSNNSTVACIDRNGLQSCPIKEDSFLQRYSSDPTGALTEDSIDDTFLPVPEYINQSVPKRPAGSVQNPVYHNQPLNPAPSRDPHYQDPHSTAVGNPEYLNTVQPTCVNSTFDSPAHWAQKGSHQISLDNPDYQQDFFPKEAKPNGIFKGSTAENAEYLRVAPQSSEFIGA
Chain of Epidermal growth factor receptor (Homo sapiens, UniProt P00533, L858R/T790M) (P00533 25-1210 T790M/L858R limits assumed): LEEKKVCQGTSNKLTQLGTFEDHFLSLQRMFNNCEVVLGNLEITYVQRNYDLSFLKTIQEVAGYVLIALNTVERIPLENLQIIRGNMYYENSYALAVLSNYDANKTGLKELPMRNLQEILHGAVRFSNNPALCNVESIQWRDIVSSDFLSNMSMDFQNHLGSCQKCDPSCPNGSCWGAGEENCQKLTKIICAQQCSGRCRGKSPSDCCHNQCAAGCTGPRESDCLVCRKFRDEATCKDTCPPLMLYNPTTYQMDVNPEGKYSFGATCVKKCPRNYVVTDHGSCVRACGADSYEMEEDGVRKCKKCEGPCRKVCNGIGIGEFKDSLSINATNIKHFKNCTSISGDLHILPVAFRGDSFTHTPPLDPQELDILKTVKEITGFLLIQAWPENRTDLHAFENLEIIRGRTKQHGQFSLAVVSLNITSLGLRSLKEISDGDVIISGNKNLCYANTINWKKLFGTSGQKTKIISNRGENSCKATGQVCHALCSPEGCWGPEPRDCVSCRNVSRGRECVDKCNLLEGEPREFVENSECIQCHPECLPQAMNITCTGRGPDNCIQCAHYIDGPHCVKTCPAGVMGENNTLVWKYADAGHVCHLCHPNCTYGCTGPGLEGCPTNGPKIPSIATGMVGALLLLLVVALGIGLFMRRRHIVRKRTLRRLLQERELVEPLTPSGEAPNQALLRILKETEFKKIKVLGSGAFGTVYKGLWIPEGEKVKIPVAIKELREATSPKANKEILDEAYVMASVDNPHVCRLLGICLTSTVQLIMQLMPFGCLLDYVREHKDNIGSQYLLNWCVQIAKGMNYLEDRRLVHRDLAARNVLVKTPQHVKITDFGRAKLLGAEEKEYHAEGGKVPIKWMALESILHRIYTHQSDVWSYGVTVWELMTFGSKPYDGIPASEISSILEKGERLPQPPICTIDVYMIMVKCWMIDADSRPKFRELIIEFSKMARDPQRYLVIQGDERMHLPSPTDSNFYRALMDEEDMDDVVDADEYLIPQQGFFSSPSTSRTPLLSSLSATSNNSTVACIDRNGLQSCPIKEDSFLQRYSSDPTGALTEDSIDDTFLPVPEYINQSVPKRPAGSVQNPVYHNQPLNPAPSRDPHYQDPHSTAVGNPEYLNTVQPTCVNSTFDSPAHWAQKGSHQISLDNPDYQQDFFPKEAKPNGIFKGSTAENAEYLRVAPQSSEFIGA

Molecule c1ccc(-c2oc3ncnc(NCCCn4ccnc4)c3c2-c2ccccc2)cc1 has an inhibition [1] of 73.8% and an IC50 [2] of 3310 nM.
In the case of CC1CN(c2ncnc3oc(-c4ccccc4)c(-c4ccccc4)c23)CC(C)N1 (configuration not stated), the IC50 [2] is reported as 334 nM.
For O=C(Nc1ccccc1)Nc1ccc(CCNc2ncnc3oc(-c4ccccc4)c(-c4ccccc4)c23)cc1, the IC50 [3] was 400 nM.
With O=S(=O)(Nc1ccc(CCNc2ncnc3oc(-c4ccccc4)c(-c4ccccc4)c23)cc1)c1ccccc1 the IC50 [3] was > 10000 nM and the IC50 [2] was 5830 nM.
OCCNc1ncnc2oc(-c3ccccc3)c(-c3ccccc3)c12 showed an inhibition [1] of 98.2% and an IC50 [2] of 309 nM.
With CCOC(=O)CCNc1ncnc2oc(-c3ccccc3)c(-c3ccccc3)c12 the IC50 [3] was > 10000 nM and the IC50 [2] was 796 nM.
In the case of Cc1cc(Nc2cc(N3CCN(C)CC3)nc(Sc3ccc(NC(=O)C4CC4)cc3)n2)n[nH]1 [TOZASERTIB], the IC50 [3] is reported as 120 nM.
For Nc1ccc(CCNc2ncnc3oc(-c4ccccc4)c(-c4ccccc4)c23)cc1, the IC50 [3] was > 10000 nM and the IC50 [2] was 640 nM.
With C[C@@H](O)CNc1ncnc2oc(-c3ccccc3)c(-c3ccccc3)c12 the IC50 [2] was 973 nM.
c1ccc(-c2oc3ncnc(NCCc4c[nH]cn4)c3c2-c2ccccc2)cc1 showed an inhibition [1] of 91.4%.
Molecule C[C@@H](CO)Nc1ncnc2oc(-c3ccccc3)c(-c3ccccc3)c12 has an IC50 [2] of 792 nM.
Molecule c1ccc(-c2oc3ncnc(NCCc4cnc[nH]4)c3c2-c2ccccc2)cc1 has an IC50 [2] of 296 nM.
With Oc1ccc(CCNc2ncnc3oc(-c4ccccc4)c(-c4ccccc4)c23)cc1 the IC50 [2] was 640 nM.
In the case of OC1CCN(c2ncnc3oc(-c4ccccc4)c(-c4ccccc4)c23)CC1, the inhibition [1] is reported as 85.8% and the IC50 [2] is reported as 807 nM.
Work on COC1C=CC(CNc2ncnc3oc(-c4ccccc4)c(-c4ccccc4)c23)(OC)O1 (configuration not stated) yielded an IC50 [2] of 827 nM.
Molecule c1ccc(-c2oc3ncnc(NCCN4CCOCC4)c3c2-c2ccccc2)cc1 has an inhibition [1] of 81.7% and an IC50 [2] of 1770 nM.
Work on Nc1ccc(CNc2ncnc3oc(-c4ccccc4)c(-c4ccccc4)c23)cc1 yielded an IC50 [2] of 945 nM.
For OC[C@@H](Nc1ncnc2oc(-c3ccccc3)c(-c3ccccc3)c12)c1ccccc1, the IC50 [4] was 223 nM, the IC50 [5] was > 10000 nM and the inhibition [6] was > 80%. For the same molecule, the IC50 [7] was 518 nM.
With O=C(CCNc1ncnc2oc(-c3ccccc3)c(-c3ccccc3)c12)Nc1ccccc1 the IC50 [3] was > 10000 nM and the IC50 [2] was > 10000 nM.
Work on OCCOCCNc1ncnc2oc(-c3ccccc3)c(-c3ccccc3)c12 yielded an IC50 [2] of 760 nM.
In the case of O=C(Nc1ccc(CCNc2ncnc3oc(-c4ccccc4)c(-c4ccccc4)c23)cc1)c1ccccc1, the IC50 [3] is reported as > 10000 nM and the IC50 [2] is reported as 304 nM.
c1ccc(-c2oc3ncnc(NCCc4ccccn4)c3c2-c2ccccc2)cc1 gave an IC50 [2] of 535 nM.
In the case of C=CC(=O)Nc1ccc(-c2c(-c3ccccc3)oc3ncnc(N[C@H](CO)c4ccccc4)c23)cc1, the IC50 [4] is reported as 82 nM, the IC50 [5] is reported as > 10000 nM and the IC50 [7] is reported as 394 nM.
